This is an account of results in US20220220103A1, “CYCLIN-DEPENDENT KINASE INHIBITORS” (SPV THERAPEUTICS INC., priority 2018, published 2022).

Several values for one entry are separate records, joined by “and”; a condition that tells them apart may be missing. Equal values may be shown once. Read-outs that look alike come from different tables or passages of the source. Some results are limits rather than exact numbers.

A word on the IC50: it is the concentration that inhibits the measured activity by half.

Assay [1] addresses CDK6-CYCLIND3 (Homo sapiens, UniProt Q00534). In words: Microfluidic LabChip inhibition assay, CDK6-CYCLIND3. Format: biochemical. Particulars: ATP 300 μM. On the procedure: (§1) The reaction was terminated by the addition of EDTA. The plates were analyzed using a Caliper LabChip 3000.
(§2) Additional inhibition assays were performed as described above.

For assay [2], the target named is CDK4-CYCLIND1 (Homo sapiens, UniProt P11802). Nature of the assay: Microfluidic LabChip inhibition assay, CDK4-CYCLIND1. It is filed as biochemical. Particulars: ATP 200 μM. The protocol: as §1, §2
Where [3] appears, read: Table 2, 25° C., read-out: CDK6 IC50.
Where [4] appears, read: Table 2, 25° C., read-out: CDK4 IC50.
The mark [5] stands for this setting: Table 3a, read-out: CDK6 CyclinD3 IC50.
[6] abbreviates: Table 3a, second values in parentheses on the line below, not explained, read-out: CDK4 CyclinD1 IC50.
[7] abbreviates: Table 3b, second values in parentheses on the line below, not explained, read-out: CDK4 CyclinD1 IC50.

Chain of CDK4-CYCLIND1 (P11802 whole entry): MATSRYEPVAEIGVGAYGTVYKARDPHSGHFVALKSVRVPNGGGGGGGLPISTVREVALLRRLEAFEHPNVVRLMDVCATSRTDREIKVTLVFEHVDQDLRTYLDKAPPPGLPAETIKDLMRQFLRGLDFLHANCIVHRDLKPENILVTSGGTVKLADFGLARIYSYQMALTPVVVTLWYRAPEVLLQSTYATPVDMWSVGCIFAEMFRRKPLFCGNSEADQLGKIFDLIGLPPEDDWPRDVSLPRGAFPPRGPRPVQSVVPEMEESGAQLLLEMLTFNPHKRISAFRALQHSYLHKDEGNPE
Chain of CDK4-CYCLIND1 (P24385 whole entry partner): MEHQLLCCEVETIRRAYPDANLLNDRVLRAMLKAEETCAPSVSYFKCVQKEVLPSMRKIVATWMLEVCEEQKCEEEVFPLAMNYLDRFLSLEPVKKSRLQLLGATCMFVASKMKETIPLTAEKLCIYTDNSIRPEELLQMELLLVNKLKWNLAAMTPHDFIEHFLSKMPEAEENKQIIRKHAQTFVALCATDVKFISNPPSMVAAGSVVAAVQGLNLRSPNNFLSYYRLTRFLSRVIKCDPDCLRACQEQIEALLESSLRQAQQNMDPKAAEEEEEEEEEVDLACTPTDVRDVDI
Chain of CDK6-CYCLIND3 (Q00534 whole entry): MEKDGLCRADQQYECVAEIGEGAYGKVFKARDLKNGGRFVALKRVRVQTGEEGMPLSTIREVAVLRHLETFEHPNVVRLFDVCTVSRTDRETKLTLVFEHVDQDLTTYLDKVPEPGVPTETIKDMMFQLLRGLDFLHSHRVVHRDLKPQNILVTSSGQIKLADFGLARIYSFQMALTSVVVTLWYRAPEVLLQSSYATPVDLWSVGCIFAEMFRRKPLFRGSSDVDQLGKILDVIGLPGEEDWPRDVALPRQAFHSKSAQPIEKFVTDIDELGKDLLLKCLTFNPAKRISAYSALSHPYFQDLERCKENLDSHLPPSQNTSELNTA
Chain of CDK6-CYCLIND3 (P30281 whole entry partner): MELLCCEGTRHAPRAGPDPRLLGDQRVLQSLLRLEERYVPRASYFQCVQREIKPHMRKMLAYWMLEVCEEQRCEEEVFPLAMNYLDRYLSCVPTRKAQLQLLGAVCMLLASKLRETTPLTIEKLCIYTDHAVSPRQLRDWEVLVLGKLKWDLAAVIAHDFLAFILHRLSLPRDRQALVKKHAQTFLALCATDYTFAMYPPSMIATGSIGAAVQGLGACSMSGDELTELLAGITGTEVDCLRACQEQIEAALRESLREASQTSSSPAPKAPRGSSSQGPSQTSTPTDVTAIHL

In the case of `N#Cc1cc2cnc(Nc3ccc(OCCN4CCCC4)c(F)c3)nc2n(C2CCCC2)c1=O` [Compound B30], the half-maximal inhibitory concentration (IC50) in assay [1] (setting [3]) came out at 24.2 nM; in assay [2] (setting [4]), 7.62 nM.
Regarding `CN(C)CCOc1ccc(Nc2ncc3cc(C#N)c(=O)n(C4CCCC4)c3n2)nc1` [Compound B6, 8-cyclopentyl-2-((5-(2-(dimethylamino)ethoxy)pyridin-2-yl)amino)-7-oxo-7,8-dihydropyrido[2,3-d]pyrimidine-6-carbonitrile], the IC50 in assay [1] (setting [3]) came to 120 nM; in assay [2] (setting [4]), 97.8 nM.
Consider `N#Cc1cc2cnc(Nc3ccc(N4CCNCC4)c(F)c3)nc2n(C23CC(C2)C3)c1=O` [Compound B147, 8-(bicyclo[1.1.1]pentan-1-yl)-2-((3-fluoro-4-(piperazin-1-yl)phenyl)amino)-7-oxo-7,8-dihydropyrido[2,3-d]pyrimidine-6-carbonitrile], for which the figures for the half-inhibitory concentration (IC50) in assay [1] (setting [5]), in assay [2] (setting [6]) and in assay [2] (setting [7]) were 81.7 nM, 47 nM and 47 nM, respectively.
`N#Cc1cc2cnc(Nc3ccc(N4CCNCC4)nc3)nc2n(C2CCCC2)c1=O` [Compound B22, 8-cyclopentyl-7-oxo-2-((6-(piperazin-1-yl)pyridin-3-yl)amino)-7,8-dihydropyrido[2,3-d]pyrimidine-6-carbonitrile]: the IC50 in assay [1] (setting [3]) is 19.7 nM; in assay [2] (setting [4]), 6.93 nM.
For the compound `CNC(=O)c1cc2cnc(Nc3ccc(N4CCN(C)CC4)nc3)nc2n(C2CCCC2)c1=O` [Compound B145, 8-cyclopentyl-N-methyl-2-((6-(4-methylpiperazin-1-yl)pyridin-3-yl)amino)-7-oxo-7,8-dihydropyrido[2,3-d]pyrimidine-6-carboxamide], the IC50 in assay [1] (setting [5]) was 2240 nM; in assay [2] (setting [6]) it was 370 nM; in assay [2] (setting [7]), 370 nM.
For the compound `N#Cc1cc2cnc(Nc3ccc(N4CCC(N5CCOCC5)CC4)c(F)c3)nc2n(C2CCCC2)c1=O` [Compound B41, 8-cyclopentyl-2-((3-fluoro-4-(4-morpholinopiperidin-1-yl)phenyl)amino)-7-oxo-7,8-dihydropyrido[2,3-d]pyrimidine-6-carbonitrile], the IC50 in assay [1] (setting [3]) turned out to be 27.9 nM; in assay [2] (setting [4]) it was 7.88 nM.
As to `CN1CCN(c2ccc(Nc3ncc4cc(C(=O)N(C)C)c(=O)n(C5CCCC5)c4n3)cc2F)CC1` [Compound B139, 8-cyclopentyl-2-((3-fluoro-4-(4-methylpiperazin-1-yl)phenyl)amino)-N,N-dimethyl-7-oxo-7,8-dihydropyrido[2,3-d]pyrimidine-6-carboxamide], the IC50 was 76.2 nM in assay [1] (setting [5]), 7.4 nM in assay [2] (setting [6]) and 7.4 nM in assay [2] (setting [7]).
In the case of `CN1CCN(c2cnc(Nc3ncc4cc(C#N)c(=O)n(C5CCCC5)c4n3)cc2C(F)(F)F)CC1` [Compound B5, 8-cyclopentyl-2-((5-(4-methylpiperazin-1-yl)-4-(trifluoromethyl)pyridin-2-yl)amino)-7-oxo-7,8-dihydropyrido[2,3-d]pyrimidine-6-carbonitrile], the IC50 is no less than 30000 nM in assay [1] (setting [3]) and 25700 nM in assay [2] (setting [4]).
With `CC(C)N1CCN(c2ccc(Nc3ncc4cc(C#N)c(=O)n(C56CC(C5)C6)c4n3)nc2)CC1` [Compound B4, 8-(bicyclo[1.1.1]pentan-1-yl)-2-((5-(4-isopropylpiperazin-1-yl)pyridin-2-yl)amino)-7-oxo-7,8-dihydropyrido[2,3-d]pyrimidine-6-carbonitrile], the half-inhibitory concentration (IC50) in assay [1] (setting [3]) was found to be 154 nM; in assay [2] (setting [4]), 213 nM.
In the case of `N#Cc1cc2cnc(Nc3ccc(N4CCC(N5CCOCC5)CC4)cc3)nc2n(C2CCCC2)c1=O` [Compound B38, 8-cyclopentyl-2-((4-(4-morpholinopiperidin-1-yl)phenyl)amino)-7-oxo-7,8-dihydropyrido[2,3-d]pyrimidine-6-carbonitrile], the IC50 was found to be 29.8 nM in assay [1] (setting [3]) and 9.81 nM in assay [2] (setting [4]).
Regarding `CC(C)N1CCN(c2ccc(Nc3ncc4cc(C#N)c(=O)n(C5CCCC5)c4n3)cc2)CC1` [Compound B16, 8-cyclopentyl-2-((4-(4-isopropylpiperazin-1-yl)phenyl)amino)-7-oxo-7,8-dihydropyrido[2,3-d]pyrimidine-6-carbonitrile], the 50% inhibitory concentration (IC50) is 6.32 nM in assay [1] (setting [3]) and 1.8 nM in assay [2] (setting [4]).
For `CC(C)N1CCN(c2cnc(Nc3ncc4cc(C#N)c(=O)n(C5CCCC5)c4n3)cc2C(F)(F)F)CC1` [Compound B29, 8-cyclopentyl-2-((5-(4-isopropylpiperazin-1-yl)-4-(trifluoromethyl)pyridin-2-yl)amino)-7-oxo-7,8-dihydropyrido[2,3-d]pyrimidine-6-carbonitrile], the half-maximal inhibitory concentration (IC50) in assay [1] (setting [3]) and in assay [2] (setting [4]) was greater than 30000 nM in each case.
On to `CN1CCN(c2ccc(Nc3ncc4cc(C#N)c(=O)n(C5CCCC5)c4n3)c(F)c2)CC1` [Compound B27, 8-cyclopentyl-2-((2-fluoro-4-(4-methylpiperazin-1-yl)phenyl)amino)-7-oxo-7,8-dihydropyrido[2,3-d]pyrimidine-6-carbonitrile], for which the concentration for half-maximal inhibition (IC50) is 1400 nM in assay [1] (setting [3]) and 457 nM in assay [2] (setting [4]).
As for `N#Cc1cc2cnc(Nc3ccc(N4CCC(N5CCOCC5)CC4)cn3)nc2n(C2CCCC2)c1=O` [Compound B39, 8-cyclopentyl-2-((5-(4-morpholinopiperidin-1-yl)pyridin-2-yl)amino)-7-oxo-7,8-dihydropyrido[2,3-d]pyrimidine-6-carbonitrile], the half-maximal inhibitory concentration (IC50) turned out to be 27.9 nM in assay [1] (setting [3]) and 9.27 nM in assay [2] (setting [4]).
For `N#Cc1cc2cnc(Nc3ccc(N4CC5(CNC5)C4)c(F)c3)nc2n(C2CCCC2)c1=O` [Compound B34, 8-cyclopentyl-2-((3-fluoro-4-(2,6-diazaspiro[3.3]heptan-2-yl)phenyl)amino)-7-oxo-7,8-dihydropyrido[2,3-d]pyrimidine-6-carbonitrile], in that order: 3.89 nM and 1.21 nM.
`CC(C)N1CCN(c2ccc(Nc3ncc4cc(C#N)c(=O)n(C5CCCC5)c4n3)cc2F)CC1` [Compound B18, 8-cyclopentyl-2-((3-fluoro-4-(4-isopropylpiperazin-1-yl)phenyl)amino)-7-oxo-7,8-dihydropyrido[2,3-d]pyrimidine-6-carbonitrile]: the concentration for half-maximal inhibition (IC50) in assay [1] (setting [3]) stood at 10.4 nM; in assay [2] (setting [4]), 2.31 nM.
Turning to `N#Cc1cc2cnc(Nc3ccc(N4CC5(CNC5)C4)nc3)nc2n(C2CCCC2)c1=O` [Compound B33, 2-((6-(2,6-diazaspiro[3.3]heptan-2-yl)pyridin-3-yl)amino)-8-cyclopentyl-7-oxo-7,8-dihydropyrido[2,3-d]pyrimidine-6-carbonitrile], the half-inhibitory concentration (IC50) was determined as 14.4 nM in assay [1] (setting [3]) and 5.97 nM in assay [2] (setting [4]).
For `N#Cc1cc2cnc(Nc3ccc(N4CCNCC4)cc3F)nc2n(C2CCCC2)c1=O` [Compound B26, 8-cyclopentyl-2-((2-fluoro-4-(piperazin-1-yl)phenyl)amino)-7-oxo-7,8-dihydropyrido[2,3-d]pyrimidine-6-carbonitrile], in that order: 36.8 nM and 15.4 nM.
With `N#Cc1cc2cnc(Nc3ccc(OCCN4CCCCC4)cn3)nc2n(C2CCCC2)c1=O` [Compound B12, 8-cyclopentyl-7-oxo-2-((5-(2-(piperidin-1-yl)ethoxy)pyridin-2-yl)amino)-7,8-dihydropyrido[2,3-d]pyrimidine-6-carbonitrile], the 50% inhibitory concentration (IC50) in assay [1] (setting [3]) stood at 61.9 nM; in assay [2] (setting [4]) it was 39.3 nM.
Taken in the same sequence, the figures for `N#Cc1cc2cnc(Nc3ccc(N4CCNCC4)c(F)c3)nc2n(C2CCCC2)c1=O` [Compound B14, 8-cyclopentyl-2-((3-fluoro-4-(piperazin-1-yl)phenyl)amino)-7-oxo-7,8-dihydropyrido[2,3-d]pyrimidine-6-carbonitrile] were 7.27 nM and 2.03 nM.
In the case of `N#Cc1cc2cnc(Nc3ccc(N4CCOCC4)c(F)c3)nc2n(C2CCCC2)c1=O` [Compound B24, 8-cyclopentyl-2-((3-fluoro-4-morpholinophenyl)amino)-7-oxo-7,8-dihydropyrido[2,3-d]pyrimidine-6-carbonitrile], the figures for the IC50 in assay [1] (setting [3]) and in assay [2] (setting [4]) were 35.8 nM and 11.1 nM, respectively.
For the compound `CNC(=O)c1cc2cnc(Nc3ccc(N4CCN(C)CC4)c(F)c3)nc2n(C2CCCC2)c1=O` [Compound B144, 8-cyclopentyl-2-((3-fluoro-4-(4-methylpiperazin-1-yl)phenyl)amino)-N-methyl-7-oxo-7,8-dihydropyrido[2,3-d]pyrimidine-6-carboxamide], the 50% inhibitory concentration (IC50) in assay [1] (setting [5]) was 138 nM; in assay [2] (setting [6]) it was 13.6 nM and 10 nM; in assay [2] (setting [7]) it was 13.6 nM and 10 nM.
Take `N#Cc1ccc(N2CCN(c3ncc4cc(C#N)c(=O)n(C5CCCC5)c4n3)CC2)cc1` [Compound B21, 2-(4-(4-cyanophenyl)piperazin-1-yl)-8-cyclopentyl-7-oxo-7,8-dihydropyrido[2,3-d]pyrimidine-6-carbonitrile]: the IC50 in assay [1] (setting [3]) and in assay [2] (setting [4]) was greater than 30000 nM each time.
As for `CN(C)[C@H]1CCN(C(=O)c2ccc(Nc3ncc4cc(C#N)c(=O)n(C5CCCC5)c4n3)cc2F)C1` [Compound B36, (S)-8-cyclopentyl-2-((4-(3-(dimethylamino)pyrrolidine-1-carbonyl)-3-fluorophenyl)amino)-7-oxo-7,8-dihydropyrido[2,3-d]pyrimidine-6-carbonitrile], the IC50 in assay [1] (setting [3]) came to 73.1 nM; in assay [2] (setting [4]) it was 13.2 nM.
`N#Cc1cc2cnc(Nc3ccc(N4CCC(N5CCOCC5)CC4)nc3)nc2n(C2CCCC2)c1=O` [Compound B40, 8-cyclopentyl-2-((6-(4-morpholinopiperidin-1-yl)pyridin-3-yl)amino)-7-oxo-7,8-dihydropyrido[2,3-d]pyrimidine-6-carbonitrile]: the IC50 was 30.8 nM in assay [1] (setting [3]) and 11.3 nM in assay [2] (setting [4]).
On to `N#Cc1cc2cnc(Nc3ccc(OCCN4CCCC4)nc3)nc2n(C2CCCC2)c1=O` [Compound B28, 8-cyclopentyl-7-oxo-2-((6-(2-(pyrrolidin-1-yl)ethoxy)pyridin-3-yl)amino)-7,8-dihydropyrido[2,3-d]pyrimidine-6-carbonitrile], for which the IC50 worked out at 120 nM in assay [1] (setting [3]) and 45 nM in assay [2] (setting [4]).
